# Results: patent publication US20240159740A1, “METHOD FOR DIRECT ANALYSIS OF FUNCTIONAL AVIDITY OF T CELLS” (priority 2021, published 2024)
# Values joined by “and” are separate entries in the source; they are usually repeats but may differ in a detail not shown here. Identical values can stand only once.
# Key:
# [1] = test system: CD40L+4-1BB+ CD4+ T cells; experiment: Ex vivo T cell stimulation of PBMC, stimulation index of CD40L+4-1BB+ CD4+ T cells by flow cytometry; assay type: cell-based, human
# [2] = test system: CD3 surface expression in CD40L+4-1BB+ CD4+ T cells; assay type: cell-based, human
# [3] = test system: expanded CD40L+4-1BB+ CD4+ short-term T cell lines; experiment: Restimulation of expanded short-term T cell lines with autologous APC and peptides or peptide pools; assay type: cell-based, human; details: T cell lines from 5 unexposed individuals
# [4] = test system: serum IgG antibodies; details: sera 1:100 from iCope T cell assay responders and non-responders
# Protocol: After blocking (1 h, 30° C.) serum samples were diluted 1:100 and incubated for 1 h at 30° C. HRP-coupled, anti-human-IgG secondary antibody (Jackson Immunoresearch) was diluted 1:5000 (Jackson Immunoresearch) and added to the serum samples for 1 h at 30° C., then HRP substrate was added (TMB, Kem-En-Tec). The reaction was stopped by adding sulfuric acid and absorption was measured at 450 nm using a FlexStation 3.
substance,measurement,setting,value
SFIEDLLFNKVTLAD [iCope],proportion of individuals with iCope-recognizing CD4+ T cells,[1]; BNT162b2 vaccinated individuals,97%
same,proportion of individuals with iCope-reactive CD4+ T cells,[1]; SARS-CoV-2 / COVID-19 convalescents,50% and 50-60%
same,contribution of peptide-specific T cells to the CD40L+4-1BB+ cells in S-II stimulations,[1]; initially after BNT162b2 vaccination,up to 100%
same,proportion of individuals with iCope-reactive CD4+ T cells,[1]; unexposed individuals,20%
same,strong responders (stim. index>3),"[1]; young, unexposed donors",44%
same,weak responders (stim. index>1.5),"[1]; young, unexposed donors",39%
same,donors in which reactive T cells increased in frequency and in functional avidity,[2],10 of 17
same,donors responding with high functional avidity T cells,"[2]; day 7 and day 14 after BNT162b2 primary vaccination, 31 donors",94%
SKRSFIEDLLFNKVT [compound 204],donors whose expanded SARS-CoV-2 S-II-cross-reactive T cells were stimulated by the peptide,[3],all 5 donors
FIEDLLFNKVTLADA [compound 205],donors whose expanded SARS-CoV-2 S-II-cross-reactive T cells were stimulated by the peptide,[3],all 5 donors
Biotin-Ttds-PSKPSKRSFIEDLLFNKV-OH [204_-1],peptide binding IgG antibodies detected in serum,[4],in all individuals
